{"source": "patent US7625507B2", "about": "“Extrusion process for forming chemically stable drug multiparticulates” (Pfizer Inc., priority 2003, dated 2009)", "test": "Lability of drug held in molten mixture for 60 minutes", "assay_type": "physicochemical", "conditions": "50 wt % azithromycin dihydrate", "procedure": "The multiparticulates formed by the process of the present invention comprise a labile drug and a carrier. As used herein the term “labile” refers to drugs that degrade by at least 0.01 wt % when held in a molten mixture of drug, carrier and optional excipient(s) for 60 minutes. Details on carriers and optional excipients are discussed below. The term “drug” as used herein includes, by way of example and not of limitation, any physiologically or pharmacologically active substance that produces a localized or systemic effect in animals. The term “animals” includes mammals, particularly humans, as well as other animals.\nLabile drugs may be identified experimentally by determining whether the drug chemically reacts or degrades when held in the molten mixture of drug, carrier and optional excipients for 60 minutes. In general, drug degradation may be measured using any conventional method for measuring the purity or potency of drug in a pharmaceutical composition. For example, the purity or potency of the drug substance prior to formation of the molten mixture may be measured using high-performance liquid chromatography (HPLC) or other analytical techniques well known in the art. […] The purity or potency of the drug after being in the molten mixture for 60 minutes is then determined. […]", "data": [{"smiles": "CC[C@H]1OC(=O)[C@H](C)[C@@H](O[C@H]2C[C@@](C)(OC)[C@@H](O)[C@H](C)O2)[C@H](C)[C@@H](O[C@@H]2O[C@H](C)C[C@H](N(C)C)[C@H]2O)[C@](C)(O)C[C@@H](C)CN(C)[C@H](C)[C@@H](O)[C@]1(C)O", "note": "[azithromycin, 9a-aza-9a-methyl-9-deoxo-9a-homoerythromycin A]", "values": [{"measurement": "lability in molten mixture", "setting": "47 wt % COMPRITOL 888 ATO, 3 wt % LUTROL F127 at 90° C. for 60 minutes", "result": "labile"}, {"measurement": "lability in molten mixture", "setting": "48 wt % microcrystalline wax, 2 wt % LUTROL F127, held 60 minutes", "result": "not labile"}]}]}
